Common to all, as to assay: NCI tumour cell line growth inhibition, 48 h
Experiment [1] deals with CAKI-1 renal.
For experiment [2], the system named is HT29 colon.
Experiment [3] relates to RPMI-8226 leukemia.
The test system of experiment [4] is KM12 colon.
For experiment [5], the system named is A549 NSCLC.
The subject of experiment [6] is SNB-75 CNS.
Experiment [7] has as its system A498 renal.
Experiment [8] relates to NCI-H522 lung.
Experiment [9] deals with IGROV1 ovarian.
Experiment [10] has as its system HOP-92 NSCLC.

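How tested: cells in 96-well plates exposed to compound for 48 hours at five concentrations. At the GI50, growth is halved. TGI denotes the concentration required for complete inhibition of growth.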

Turning to `C#CCOCC12C=CC(O1)C1C(=O)OCC12` (stereo unspecified), the TGI in experiment [1], in [2], in [3], in experiment [4], in experiment [5] and in experiment [6] was greater than 100 µM in each case. Besides, the TGI in experiment [7], in [8] and in [9] was greater than 100 µM throughout.
Take `OC1(c2ccccc2)CSC2=Nc3ccccc3C3CCN1N23` (stereo unspecified): the TGI was determined as 72.6 µM in [1]; 69.6 µM in experiment [10]; 33.8 µM in experiment [2]; 42 µM in experiment [4]; 74.3 µM in experiment [5]; 25.5 µM in [6]. The TGI in experiment [7] is 44.7 µM; in experiment [8], 40.5 µM; in experiment [9], 27.4 µM.
Take `O=C(CC(=O)Nc1ccccc1)N/N=C/c1cc(N=Nc2ccc(Br)cc2)ccc1O`: the TGI in [1], in experiment [10], in experiment [3], in [4], in experiment [5] and in [6] was greater than 10 µM in each case. In addition, the TGI in [9] is greater than 10 µM.
As for `CCCc1ccc(NCc2cc(OC)c(OC)c(OC)c2)cc1`, the TGI in experiment [10] is 75.8 µM; in [2], 61.7 µM; in [3] it was 37 µM; in [4], 55.2 µM; in [5] it was greater than 100 µM; in experiment [6], 94.8 µM. The TGI in experiment [7] was 98.6 µM; in experiment [8], 34.3 µM; in experiment [9] it was greater than 100 µM. Moreover, the GI50 in experiment [8] was 17.3 µM.
`Nc1ccc(CCN2CCN(CCCc3ccccc3)CC2)cc1`: the TGI in [1], in experiment [2], in experiment [3], in [4], in experiment [5] and in experiment [7] was greater than 100 µM throughout. Further, the TGI in [8] and in [9] was greater than 100 µM throughout.
Regarding `C=CCOC(=O)C1C2OC3(C(C(=O)OC)=C2C(=O)OC)c2ccccc2CCC13` (stereo unspecified), the TGI in experiment [1], in experiment [2], in experiment [3], in [4], in [5] and in experiment [7] was greater than 10 µM each time. The TGI in experiment [9] is greater than 10 µM.
Take `c1ccc(CSCCc2ccncc2)cc1`: the TGI in experiment [10], in experiment [2], in experiment [3], in experiment [4], in [5] and in experiment [7] was greater than 100 µM in each case. In addition, the TGI in experiment [8] and in experiment [9] was greater than 100 µM each time.
As to `COc1cccc(NC(=O)C(C#N)=C(SC)SC)c1`, the TGI in experiment [1], in [10], in [2], in [4], in [5] and in experiment [6] was greater than 100 µM throughout. In addition, the TGI in experiment [7], in [8] and in [9] was greater than 100 µM each time.
As for `CC1OC(OC2C(OC(=O)[C@@H]3CC(C)(C)C[C@H]4C5=CC[C@@H]6[C@@]7(C)C[C@H](O)[C@H](OC8OC(CO)C(O)C(O)C8O)[C@@](C)(CO)[C@@H]7[C@H](O)C[C@@]6(C)[C@]5(C)CC[C@@]34C)OCC(O)C2O)C(O)C(O)C1O` (stereo partly specified), the TGI in experiment [1], in experiment [10], in experiment [2], in experiment [4], in experiment [6] and in [8] was greater than 7.5 µM each time. This molecule had a TGI in experiment [9] greater than 7.5 µM.
Turning to `O[C@H]1[C@H](O)[C@@H](O)[C@@]2(O)C[C@@H](O)[C@@H]1N2`, the TGI in experiment [10], in experiment [2], in experiment [4], in experiment [5], in experiment [6] and in experiment [7] was greater than 100 µM in each case. Further, the TGI in experiment [8] and in experiment [9] was greater than 100 µM each time.
Turning to `CSCCC(NC(=O)Cc1ccc(C(=O)c2ccccc2)cc1)C(=O)O` (stereo unspecified), the TGI in experiment [1], in experiment [10], in experiment [2], in [4], in experiment [5] and in experiment [6] was greater than 100 µM throughout. For the same molecule, the TGI in experiment [7], in [8] and in [9] was greater than 100 µM each time.
On to `CC(NC(C)(C)C)C(=O)c1cccc(Cl)c1` (stereo unspecified), for which the TGI in experiment [1], in experiment [2], in experiment [3], in [4], in experiment [5] and in experiment [6] was greater than 100 µM each time. In addition, the TGI in [7], in [8] and in experiment [9] was greater than 100 µM throughout.
`Fc1ccccc1C1SCc2nc3cc4ccccc4cc3n21` (stereo unspecified): the TGI in experiment [1], in [2], in [3], in [4], in experiment [5] and in [6] was greater than 100 µM each time. Besides, the TGI in experiment [8] and in experiment [9] was greater than 100 µM each time.
Regarding `COC(=O)C1=C(OC(=O)c2ccccc2)C(C(=O)OC)[C@]2(O)[C@@H](C(=O)OC)[C@H]1C[C@@H](c1ccccc1)[C@@H]2C(=O)OC` (stereo partly specified), the TGI in experiment [1] was greater than 100 µM; in experiment [10], 27.3 µM; in [2] it was 30.7 µM; in experiment [3], 13.8 µM; in experiment [4], greater than 100 µM; in experiment [5], 34.5 µM. For the same molecule, the TGI in experiment [7] was 64.1 µM; in experiment [9] it was 21.1 µM.
In the case of `Cc1nc(-c2ccc(N=Cc3ccc(N(CCOS(C)(=O)=O)CCOS(C)(=O)=O)cc3C)cc2)cs1`, the TGI is greater than 100 µM in [2]; greater than 100 µM in [3]; greater than 100 µM in experiment [4]; greater than 100 µM in [5]; greater than 100 µM in experiment [6]; 11.4 µM in experiment [7]. Further, the TGI in experiment [8] and in experiment [9] was greater than 100 µM throughout.
Take `CCC1(COC(NC(=O)c2ccccc2)(C(F)(F)F)C(F)(F)F)COC1`: the TGI in [1], in experiment [2], in experiment [3], in experiment [5], in experiment [6] and in experiment [7] was greater than 100 µM throughout. Moreover, the TGI in [9] was greater than 100 µM.

The values are drawn from PubChem BioAssay (NCI).
